How the values were obtained:
[1] = Cytotoxicity (SRB) against non-tumoral L02 cells; type: cell-based, human; conditions: human, L02 cells (non-tumoral human liver cell line); increasing concentrations up to 100 μM; mean ± SD of at least three independent experiments; read-out: Normal Human Cell Lines, CC50, L02
SW1990 cells = experiment: In vitro anti-proliferative SRB assay, SW1990; type: cell-based, human; conditions: for IC50: Homo sapiens, SW1990, increasing concentrations up to 30 μM, mean ± SD of at least three independent experiments; for SI (CC50 HMLE/IC50 SW1990) / SI (CC50 L02/IC50 SW1990): selectivity index; for SI (CC50 HMLE/IC50 SW1990): HMLE vs SW1990; for SI (CC50 L02/IC50 SW1990): L02 vs SW1990
A549 cells = experiment: In vitro anti-proliferative SRB assay, A549; type: cell-based, human; conditions: for IC50: Homo sapiens, A549, increasing concentrations up to 30 μM, mean ± SD of at least three independent experiments; for SI (CC50 HMLE/IC50 A549) / SI (CC50 L02/IC50 A549): selectivity index; for SI (CC50 HMLE/IC50 A549): HMLE vs A549; for SI (CC50 L02/IC50 A549): L02 vs A549
[2] = Cytotoxicity (SRB) against non-tumoral HMLE cells; type: cell-based, human; conditions: human, HMLE cells (non-tumoral human mammary epithelial cells); increasing concentrations up to 100 μM; mean ± SD of at least three independent experiments; read-out: Normal Human Cell Lines, CC50, HMLE
HepG2 cells = experiment: In vitro anti-proliferative SRB assay, HepG2; type: cell-based, human; conditions: for IC50: Homo sapiens, HepG2, increasing concentrations up to 30 μM, mean ± SD of at least three independent experiments; for SI (CC50 HMLE/IC50 HepG2) / SI (CC50 L02/IC50 HepG2): selectivity index; for SI (CC50 HMLE/IC50 HepG2): HMLE vs HepG2; for SI (CC50 L02/IC50 HepG2): L02 vs HepG2
[3] = tested on: five human cancer cell lines (HepG2, HeLa, MCF-7, A549 and SW1990); experiment: In vitro anti-proliferative SRB assay, summary statements over the five-line panel; type: cell-based
Description: With a aim of identifying potential anticancer agents with enhanced levels of activity, as well as verifying the conclusions provided above, we took a14 as a starting compound, and then designed and synthesized a series of chalcones b1–42 bearing methoxy groups at the 2' and 6'-positions of the B-ring, whilst varying the substituents on the A-ring. The cytotoxicities of the resulting chalcones were evaluated in vitro against five human cancer cell lines and other two non-tumoral cell lines, including HepG2, HeLa, MCF-7, A549, SW1990, HMLE and L02, and the results are shown in Table 2.
HepG2 and MCF7 cells were grown in the Eagle’s minimum essential medium with Earle’s balanced salts (MEM-EBSS) medium, HeLa, A549 and L02 cells were grown in Dulbecco’s Modified Eagle Media (DMEM), SW1990 cells were grown in RPMI-1640 medium, and HMLE cell were grown in DMEM/F-12 medium. The media were supplemented with 100 U/mL penicillin, […] streptomycin and 10% fetal bovine serum (FBS), and incubated at 37 °C in a humidified atmosphere containing 5% CO2.
Cells were seeded into 96-well plates (4000 cells/well) and incubated at 37 °C in a humidified 5% CO2 atmosphere. After 24 h, the cells were treated with different concentrations of the compounds for 48 h in triplicate to generate dose-response curves. Cell viability was evaluated using the sulforhodamine B (SRB) assay as previous described. […] Etoposide was used as the positive control.

HeLa cells = experiment: In vitro anti-proliferative SRB assay, HeLa; type: cell-based, human; conditions: for IC50: Homo sapiens, HeLa, increasing concentrations up to 30 μM, mean ± SD of at least three independent experiments; for SI (CC50 HMLE/IC50 Hela) / SI (CC50 L02/IC50 Hela): selectivity index; for SI (CC50 HMLE/IC50 Hela): HMLE vs HeLa; for SI (CC50 L02/IC50 Hela): L02 vs HeLa
MCF-7 cells = experiment: In vitro anti-proliferative SRB assay, MCF-7; type: cell-based, human; conditions: for IC50: Homo sapiens, MCF7, increasing concentrations up to 30 μM, mean ± SD of at least three independent experiments; for SI (CC50 HMLE/IC50 MCF7) / SI (CC50 L02/IC50 MCF7): selectivity index; for SI (CC50 HMLE/IC50 MCF7): HMLE vs MCF7; for SI (CC50 L02/IC50 MCF7): L02 vs MCF7
[4] = tested on: human mammary epithelial cell (HMLE); experiment: Cytotoxicity (SRB) against non-tumoral HMLE cells; type: cell-based; conditions: HMLE versus the five tumoral cell lines
[5] = most of their in vitro IC50 values against the five human cancer lines
[6] = Homo sapiens, nearly all of the IC50 values

| SMILES | CC50 at 48 h [1] | IC50 (SW1990 cells) | SI (CC50 HMLE/IC50 SW1990) (SW1990 cells) | SI (CC50 L02/IC50 SW1990) (SW1990 cells) | IC50 (A549 cells) | SI (CC50 HMLE/IC50 A549) (A549 cells) | SI (CC50 L02/IC50 A549) (A549 cells) | CC50 at 48 h [2] | IC50 (HepG2 cells) | SI (CC50 HMLE/IC50 HepG2) (HepG2 cells) | SI (CC50 L02/IC50 HepG2) (HepG2 cells) | IC50 [3, 5] | IC50 (HeLa cells) | SI (CC50 HMLE/IC50 Hela) (HeLa cells) | SI (CC50 L02/IC50 Hela) (HeLa cells) | melting point | IC50 (MCF-7 cells) | SI (CC50 HMLE/IC50 MCF7) (MCF-7 cells) | SI (CC50 L02/IC50 MCF7) (MCF-7 cells) | IC50 [3, 6] | further results |
| --- | --- | --- | --- | --- | --- | --- | --- | --- | --- | --- | --- | --- | --- | --- | --- | --- | --- | --- | --- | --- | --- |
| COc1ccccc1C(=O)/C=C/c1c(OC)cccc1OC [b6, (E)-1-(2-Methoxyphenyl)-3-(2,6-dimethoxyphenyl)prop-2-en-1-one] | 8.78 ± 1.21 µM | 10 ± 0.14 µM | 0.4 | 0.9 | 6.35 ± 0.32 µM | 0.6 | 1.4 | 4.01 ± 0.05 µM | 2.05 ± 0.22 µM | 2.0 | 4.3 | < 10 µM | 5 ± 0.03 µM | 0.8 | 1.8 | 109 to 111.4 °C | 5.6 ± 0.17 µM | 0.7 | 1.6 | – | – |
| CCOc1ccc(C(=O)/C=C/c2c(OC)cccc2OC)cc1OC [b16, (E)-1-(4-Ethoxy-3-methoxyphenyl)-3-(2,6-dimethoxyphenyl)prop-2-en-1-one] | 44.7 ± 8.15 µM | 7.67 ± 0.04 µM | 1.2 | 5.8 | 5.78 ± 0.11 µM | 1.6 | 7.7 | 9.15 ± 1.33 µM | 4.14 ± 0.11 µM | 2.2 | 10.8 | < 10 µM | 5.02 ± 0.09 µM | 1.8 | 8.9 | 105.3 to 107.2 °C | 4.79 ± 0.13 µM | 1.9 | 9.3 | – | – |
| COc1ccc(OC)c(C(=O)/C=C/c2c(OC)cccc2OC)c1 [b18, (E)-1-(2,5-Dimethoxyphenyl)-3-(2,6-dimethoxyphenyl)prop-2-en-1-one] | 17 ± 2.73 µM | 9.64 ± 0.18 µM | 0.3 | 1.8 | 4.16 ± 0.72 µM | 0.6 | 4.1 | 2.48 ± 0.34 µM | 1.59 ± 0.15 µM | 1.6 | 10.7 | < 10 µM | 4.56 ± 0.22 µM | 0.5 | 3.7 | 121 to 122 °C | 5.6 ± 0.06 µM | 0.4 | 3.0 | – | – |
| COc1cccc(OC)c1/C=C/C(=O)c1ccc(-c2ccccc2)cc1 [b22, (E)-1-([1,1'-Biphenyl]-4-yl)-3-(2,6-dimethoxyphenyl)prop-2-en-1-one] | 14.5 ± 6.58 µM | 1.24 ± 0.08 µM | 1.8 | 11.7 | 1.75 ± 0.15 µM | 1.3 | 8.3 | 2.21 ± 0.09 µM | 0.25 ± 0.03 µM | 8.8 | 58.2 | < 10 µM | 0.87 ± 0.25 µM | 2.5 | 16.7 | 121.7 to 123.5 °C | 2.4 ± 0.08 µM | 0.9 | 6.1 | – | fold as potent than etoposide (SW1990 cells; SW1990 cells, ratio of IC50 values versus etoposide): 23.6 fold; fold as potent than etoposide (HepG2 cells; HepG2 cells, ratio of IC50 values versus etoposide): 20.4 fold |
| COc1cccc(OC)c1/C=C/C(=O)c1cccc(N)c1 [b23, (E)-1-(3-Aminophenyl)-3-(2,6-dimethoxyphenyl)prop-2-en-1-one] | 43.2 ± 11.7 µM | 10.07 ± 0.03 µM | 1.1 | 4.3 | 7.32 ± 0.29 µM | 1.6 | 5.9 | 11.4 ± 0.76 µM | 5.7 ± 0.09 µM | 2.0 | 7.6 | < 10 µM | 7.23 ± 0.07 µM | 1.6 | 6.0 | 148.6 to 150.3 °C | 8.56 ± 0.75 µM | 1.3 | 5.0 | – | – |
| COc1cccc(OC)c1/C=C/C(=O)c1ccc(O)cc1O [b27, (E)-1-(2,4-Dihydroxyphenyl)-3-(2,6-dimethoxyphenyl)prop-2-en-1-one] | 35.5 ± 5.72 µM | > 30 µM | – | <1.2 | 17.3 ± 0.76 µM | >5.8 | 2.1 | > 100 µM | 17.4 ± 1.01 µM | >5.8 | 2.0 | – | 24.84 ± 0.17 µM | >4.0 | 1.4 | 218.7 to 220.2 °C | 23.1 ± 0.82 µM | >4.3 | 1.5 | – | SI between the CC50 in HMLE and IC50 in tumoral cells [4]: 2–7 fold |
| COc1cccc(OC)c1/C=C/C(=O)c1ccc(C#N)cc1 [b30, (E)-1-(4-Cyanophenyl)-3-(2,6-dimethoxyphenyl)prop-2-en-1-one] | > 100 µM | > 30 µM | <0.4 | – | > 30 µM | <0.4 | – | 12.6 ± 2.82 µM | 20.4 ± 0.21 µM | 0.6 | >4.9 | – | > 30 µM | <0.4 | – | 144.3 to 145.9 °C | > 30 µM | <0.4 | – | > 30 µM | – |
| COc1cccc(OC)c1/C=C/C(=O)c1cccc([N+](=O)[O-])c1 [b39, (E)-1-(3-Nitrophenyl)-3-(2,6-dimethoxyphenyl)prop-2-en-1-one] | > 100 µM | > 30 µM | – | – | > 30 µM | – | – | > 100 µM | > 30 µM | – | – | – | > 30 µM | – | – | 172.3 to 173.7 °C | > 30 µM | – | – | > 30 µM | – |
| COc1cccc(OC)c1/C=C/C(=O)c1ccc([N+](=O)[O-])cc1 [b40, (E)-1-(4-Nitrophenyl)-3-(2,6-dimethoxyphenyl)prop-2-en-1-one] | > 100 µM | > 30 µM | – | – | > 30 µM | – | – | > 100 µM | > 30 µM | – | – | – | > 30 µM | – | – | 147.3 to 148.6 °C | > 30 µM | – | – | > 30 µM | – |
| COc1cccc(OC)c1/C=C/C(=O)c1cccc(C(F)(F)F)c1 [b41, (E)-1-(3-(Trifluoromethyl)phenyl)-3-(2,6-dimethoxyphenyl)prop-2-en-1-one] | > 100 µM | > 30 µM | – | – | > 30 µM | – | – | > 100 µM | 24.4 ± 5.87 µM | >4.1 | >4.1 | – | 29.1 ± 3.06 µM | >3.4 | >3.4 | 145.3 to 146.7 °C | > 30 µM | – | – | > 30 µM | – |
| COc1cccc(OC)c1/C=C/C(=O)c1cc(C(F)(F)F)cc(C(F)(F)F)c1 [b42, (E)-1-(3,5-bis(Trifluoromethyl)phenyl)-3-(2,6-dimethoxyphenyl)prop-2-en-1-one] | > 100 µM | > 30 µM | – | – | > 30 µM | – | – | > 100 µM | > 30 µM | – | – | – | > 30 µM | – | – | 126.5 to 127.8 °C | > 30 µM | – | – | > 30 µM | – |

— article PMC6271338, “Synthesis and Cytotoxic Evaluation of Alkoxylated Chalcones” (Molecules, 2014)
